# PubChem BioAssay (NCI)
#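 Where inhibition never reached the appropriate level, the endpoint shown equals the highest concentration tested. Otherwise, values were interpolated linearly from a five-concentration, 48-hour dose response in 96-well plates. TGI marks complete inhibition of growth.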
# How the values were obtained:
# Experiment in all cases: NCI anticancer screen, dose series, 48 h
# SK-MEL-2 melanoma = test system: SK-MEL-2 melanoma
# SK-MEL-28 melanoma = test system: SK-MEL-28 melanoma
# SW-620 colon = test system: SW-620 colon
# RXF 393 renal = test system: RXF 393 renal
# OVCAR-8 ovarian = test system: OVCAR-8 ovarian
# 786-0 renal = test system: 786-0 renal
# SF-539 CNS = test system: SF-539 CNS
# SNB-75 CNS = test system: SNB-75 CNS
# EKVX NSCLC = test system: EKVX NSCLC
# SK-OV-3 ovarian = test system: SK-OV-3 ovarian
# CCRF-CEM leukemia = test system: CCRF-CEM leukemia
# NCI-H23 lung = test system: NCI-H23 lung
# U251 CNS = test system: U251 CNS
# IGROV1 ovarian = test system: IGROV1 ovarian
# HCC-2998 colon = test system: HCC-2998 colon
# SN12C renal = test system: SN12C renal
# DU-145 prostate = test system: DU-145 prostate
# HCT-116 colon = test system: HCT-116 colon
# T-47D breast = test system: T-47D breast
# OVCAR-4 ovarian = test system: OVCAR-4 ovarian
# COLO 205 colon = test system: COLO 205 colon
# SK-MEL-5 melanoma = test system: SK-MEL-5 melanoma
# LOX IMVI melanoma = test system: LOX IMVI melanoma
# NCI/ADR-RES ovarian = test system: NCI/ADR-RES ovarian
# OVCAR-5 ovarian = test system: OVCAR-5 ovarian
# UACC-257 melanoma = test system: UACC-257 melanoma
# MOLT-4 leukemia = test system: MOLT-4 leukemia
# MDA-N = test system: MDA-N
# CAKI-1 renal = test system: CAKI-1 renal
# HT29 colon = test system: HT29 colon
# A498 renal = test system: A498 renal
# HL-60(TB) leukemia = test system: HL-60(TB) leukemia
# HS 578T breast = test system: HS 578T breast
# PC-3 prostate = test system: PC-3 prostate
# A549 NSCLC = test system: A549 NSCLC
# K-562 leukemia = test system: K-562 leukemia
# HOP-92 NSCLC = test system: HOP-92 NSCLC
# MALME-3M melanoma = test system: MALME-3M melanoma
# TK-10 renal = test system: TK-10 renal
# ACHN renal = test system: ACHN renal
# SF-268 CNS = test system: SF-268 CNS
# NCI-H460 lung = test system: NCI-H460 lung
# UACC-62 melanoma = test system: UACC-62 melanoma
# RPMI-8226 leukemia = test system: RPMI-8226 leukemia
# SR leukemia = test system: SR leukemia
# NCI-H522 lung = test system: NCI-H522 lung
# SF-295 CNS = test system: SF-295 CNS
# NCI-H226 lung = test system: NCI-H226 lung
# MDA-MB-435 = test system: MDA-MB-435
# KM12 colon = test system: KM12 colon
# HCT-15 colon = test system: HCT-15 colon
# MDA-MB-231 breast = test system: MDA-MB-231 breast
# HOP-62 NSCLC = test system: HOP-62 NSCLC
# SNB-19 CNS = test system: SNB-19 CNS
# UO-31 renal = test system: UO-31 renal
# M14 melanoma = test system: M14 melanoma
# MCF7 breast = test system: MCF7 breast
# OVCAR-3 ovarian = test system: OVCAR-3 ovarian
structure (smiles),measurement,setting,value
CN(C)C(=S)N1C(=S)N(c2ccccc2)C(=Nc2ccccc2)C1=Nc1ccccc1,TGI,SK-MEL-2 melanoma,> 100 µM
same,TGI,SK-MEL-28 melanoma,> 100 µM
same,TGI,SW-620 colon,> 100 µM
same,TGI,RXF 393 renal,> 100 µM
same,TGI,OVCAR-8 ovarian,> 100 µM
same,TGI,786-0 renal,> 100 µM
same,TGI,SF-539 CNS,> 100 µM
same,TGI,SNB-75 CNS,> 100 µM
same,TGI,EKVX NSCLC,> 100 µM
same,TGI,SK-OV-3 ovarian,> 100 µM
same,TGI,CCRF-CEM leukemia,> 100 µM
same,TGI,NCI-H23 lung,> 100 µM
same,TGI,U251 CNS,> 100 µM
same,TGI,IGROV1 ovarian,> 100 µM
same,TGI,HCC-2998 colon,> 100 µM
same,TGI,SN12C renal,> 100 µM
same,TGI,DU-145 prostate,> 100 µM
same,TGI,HCT-116 colon,> 100 µM
same,TGI,T-47D breast,> 100 µM
same,TGI,OVCAR-4 ovarian,> 100 µM
same,TGI,COLO 205 colon,> 100 µM
same,TGI,SK-MEL-5 melanoma,> 100 µM
same,TGI,LOX IMVI melanoma,> 100 µM
same,TGI,NCI/ADR-RES ovarian,> 100 µM
same,TGI,OVCAR-5 ovarian,> 100 µM
same,TGI,UACC-257 melanoma,> 100 µM
same,TGI,MOLT-4 leukemia,> 100 µM
same,TGI,MDA-N,> 100 µM
same,TGI,CAKI-1 renal,> 100 µM
same,TGI,HT29 colon,> 100 µM
same,TGI,A498 renal,> 100 µM
same,TGI,HL-60(TB) leukemia,> 100 µM
same,TGI,HS 578T breast,> 100 µM
same,TGI,PC-3 prostate,> 100 µM
same,TGI,A549 NSCLC,> 100 µM
same,TGI,K-562 leukemia,> 100 µM
same,TGI,HOP-92 NSCLC,> 100 µM
same,TGI,MALME-3M melanoma,> 100 µM
same,TGI,TK-10 renal,> 100 µM
same,TGI,ACHN renal,> 100 µM
same,TGI,SF-268 CNS,> 100 µM
same,TGI,NCI-H460 lung,> 100 µM
same,TGI,UACC-62 melanoma,> 100 µM
same,TGI,RPMI-8226 leukemia,> 100 µM
same,TGI,SR leukemia,> 100 µM
same,TGI,NCI-H522 lung,> 100 µM
same,TGI,SF-295 CNS,> 100 µM
same,TGI,NCI-H226 lung,> 100 µM
same,TGI,MDA-MB-435,> 100 µM
same,TGI,KM12 colon,> 100 µM
same,TGI,HCT-15 colon,> 100 µM
same,TGI,MDA-MB-231 breast,> 100 µM
same,TGI,HOP-62 NSCLC,> 100 µM
same,TGI,SNB-19 CNS,> 100 µM
same,TGI,UO-31 renal,> 100 µM
CC1(C)C(C#N)=[N+]([O-])C(C)(C)N1O,TGI,SK-MEL-2 melanoma,> 100 µM
same,TGI,SK-MEL-28 melanoma,> 100 µM
same,TGI,SW-620 colon,> 100 µM
same,TGI,RXF 393 renal,> 100 µM
same,TGI,OVCAR-8 ovarian,> 100 µM
same,TGI,M14 melanoma,> 100 µM
same,TGI,786-0 renal,> 100 µM
same,TGI,SF-539 CNS,> 100 µM
same,TGI,SNB-75 CNS,> 100 µM
same,TGI,EKVX NSCLC,> 100 µM
same,TGI,SK-OV-3 ovarian,> 100 µM
same,TGI,CCRF-CEM leukemia,> 100 µM
same,TGI,NCI-H23 lung,> 100 µM
same,TGI,U251 CNS,> 100 µM
same,TGI,IGROV1 ovarian,> 100 µM
same,TGI,HCC-2998 colon,> 100 µM
same,TGI,SN12C renal,> 100 µM
same,TGI,DU-145 prostate,> 100 µM
same,TGI,HCT-116 colon,> 100 µM
same,TGI,T-47D breast,> 100 µM
same,TGI,MCF7 breast,> 100 µM
same,TGI,OVCAR-4 ovarian,> 100 µM
same,TGI,COLO 205 colon,> 100 µM
same,TGI,SK-MEL-5 melanoma,> 100 µM
same,TGI,LOX IMVI melanoma,> 100 µM
same,TGI,NCI/ADR-RES ovarian,> 100 µM
same,TGI,OVCAR-5 ovarian,> 100 µM
same,TGI,OVCAR-3 ovarian,> 100 µM
same,TGI,UACC-257 melanoma,> 100 µM
same,TGI,MOLT-4 leukemia,> 100 µM
same,TGI,MDA-N,> 100 µM
same,TGI,CAKI-1 renal,> 100 µM
same,TGI,HT29 colon,> 100 µM
same,TGI,HL-60(TB) leukemia,73.4 µM
same,TGI,HS 578T breast,> 100 µM
same,TGI,PC-3 prostate,> 100 µM
same,TGI,A549 NSCLC,> 100 µM
same,TGI,K-562 leukemia,> 100 µM
same,TGI,HOP-92 NSCLC,> 100 µM
same,TGI,MALME-3M melanoma,> 100 µM
same,TGI,TK-10 renal,> 100 µM
same,TGI,ACHN renal,> 100 µM
same,TGI,SF-268 CNS,> 100 µM
same,TGI,NCI-H460 lung,> 100 µM
same,TGI,UACC-62 melanoma,> 100 µM
same,TGI,RPMI-8226 leukemia,> 100 µM
same,TGI,SR leukemia,> 100 µM
same,TGI,SF-295 CNS,> 100 µM
same,TGI,NCI-H226 lung,> 100 µM
same,TGI,MDA-MB-435,> 100 µM
same,TGI,KM12 colon,> 100 µM
same,TGI,HCT-15 colon,> 100 µM
same,TGI,MDA-MB-231 breast,> 100 µM
same,TGI,HOP-62 NSCLC,> 100 µM
same,TGI,SNB-19 CNS,> 100 µM
same,TGI,UO-31 renal,> 100 µM
